Experimental data from patent US8703965B2, “Preparation of saturated imidazolinium salts and related compounds” (Materia, Inc., priority 2007, dated 2014).

Assay: Solubility of the salts in different solvents at different temperature (basis for the separation)
Source text: The principle to separate the two salts is the solubility in different solvents at different temperature.

Solubility in toluene (100 C.) | SMILES | Solubility in acetone (Room Temperature) | Solubility in hexane (Room Temperature) | Solubility in toluene (Room Temperature) | Solubility in water (Room Temperature)
soluble | Br.CCN(C(C)C)C(C)C [i-Pr2NEt—HBr] | soluble | not soluble | not soluble | very soluble
– | Cc1cc(C)c(N2C=[N+](c3c(C)cc(C)cc3C)CC2)c(C)c1.[Br-] [sIMes-HBr, 1,3-Dimesitylimidazolinium Bromide] | slightly soluble | not soluble | not soluble | slightly soluble
